Data on one molecule can be found in patent US12522623B2, “Small molecule STAT protein degraders” (THE REGENTS OF THE UNIVERSITY OF MICHIGAN, priority 2020, dated 2026).

What all share (format): cell-based
One assay deals with T1, STAT3 (Homo sapiens, UniProt P40763).
T1 construct: endogenous in cells; host or cells: MOLM-16 (acute leukemia cells)
In words: Fluorescent immunoblotting of STAT3 protein in MOLM-16 cells (estimated DC50). The settings on record: MOLM-16, 4 h. The protocol: (§1) In vitro cultured cells or xenograft tumors were lysed 1×Cell Lysis Buffer (Cell Signaling Technology, #9803), resolved by SDS-PAGE NuPAGE gel (Thermo Fisher Scientific), and transferred to a PVDF membrane (Bio Rad). For chemiluminescence immunoblotting, membranes were blocked for 1 h using 5% Blotting-Grade Blocker (#1706404, Bio Rad) in 1×Tris-buffered saline with Tween 20 (TBST, Pierce). Antibodies used were: rabbit mAbs for STAT3 (Cell Signaling Technology, #4368, #12640) and p-STAT3 (Y705) (Cell Signaling Technology, #9245, #52075). HRP conjugated goat anti-rabbit IgG (H+L) (#A27036) secondary antibodies was from Thermo Fisher Scientific. GAPDH (Santa Cruz Technology, sc-47724HRP) and actin (Santa Cruz Technology, sc-8432HRP, sc-47778HRP) were loading controls. For fluorescent immunoblotting, membranes were blocked using Odyssey TBS Blocker Buffer (LI-COR). IRDye 680RD and 800CW Dye-labeled secondary antibodies (LI-COR) were used. The washed membranes were scanned using Odyssey CLx imager (LI-COR). The intensity of Western blot signaling was quantitated using the Odyssey software or Image Studio V5.2 (LI-COR).

The target of the next assay is T2, STAT1 (Homo sapiens, UniProt P42224).
T2 construct: endogenous in cells; host or cells: MOLM-16 (acute leukemia cells)
T2 sequence (P42224 1-750): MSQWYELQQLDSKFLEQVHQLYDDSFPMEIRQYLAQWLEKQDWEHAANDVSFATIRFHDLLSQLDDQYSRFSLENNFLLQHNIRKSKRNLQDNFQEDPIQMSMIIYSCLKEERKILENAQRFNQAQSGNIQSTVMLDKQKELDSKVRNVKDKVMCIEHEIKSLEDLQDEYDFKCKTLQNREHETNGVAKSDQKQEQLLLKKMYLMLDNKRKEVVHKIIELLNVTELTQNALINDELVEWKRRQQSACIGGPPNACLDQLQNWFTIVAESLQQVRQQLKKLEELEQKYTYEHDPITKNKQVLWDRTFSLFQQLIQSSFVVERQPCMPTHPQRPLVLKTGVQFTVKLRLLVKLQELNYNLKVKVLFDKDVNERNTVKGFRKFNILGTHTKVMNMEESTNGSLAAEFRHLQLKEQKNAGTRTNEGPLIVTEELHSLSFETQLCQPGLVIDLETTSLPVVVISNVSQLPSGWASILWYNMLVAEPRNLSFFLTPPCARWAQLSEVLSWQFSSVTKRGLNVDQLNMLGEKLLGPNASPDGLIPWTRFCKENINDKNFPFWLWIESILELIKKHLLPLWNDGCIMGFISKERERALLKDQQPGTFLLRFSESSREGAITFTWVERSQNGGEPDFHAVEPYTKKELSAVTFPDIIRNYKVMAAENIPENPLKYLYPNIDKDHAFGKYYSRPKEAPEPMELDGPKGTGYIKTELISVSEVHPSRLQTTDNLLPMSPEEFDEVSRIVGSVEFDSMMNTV
As to the kind of experiment: Fluorescent immunoblotting of STAT1 protein in MOLM-16 cells (estimated DC50). The settings on record: MOLM-16, 4 h. On the procedure:
as §1

Another assay deals with MOLM-16 cells. As to the kind of experiment: Cell growth inhibition, 4-day proliferation assay (CellTiter-Glo). Conditions: MOLM16, 96 h; MOLM-16, 4 days. The protocol:
The effect of representative Compounds of the Disclosure on cell viability was determined in a 4-day proliferation assay. Cells were maintained in the appropriate culture medium at 37° C. and an atmosphere of 5% CO2. All the cell lines were used within three months of thawing fresh vials. Cells were seeded in 384-well white plates (Corning Costar) at a density of 2,000 cells/well in 25 μl of culture medium. Compounds were serially diluted in the appropriate medium, and 25 μl of the diluted compounds were added to the cells. After the addition of compounds, the cells were incubated at 37° C. in an atmosphere of 5% CO2 for 4 days. Cell viability was determined using the CellTiter-Glo® Luminescent Cell Viability Assay Kit (Promega, Madison, WI) according to the manufacturers' instructions. Essentially, 50 μl of CellTiter-Glo® Reagent was added to each well, and then the plates were incubated at room temperature for 20 minutes. The luminescent signal was measured using a Tecan multimode microplate reader (Tecan, Morrisville, NC). The readings were normalized to the DMSO-treated cells and the IC50 was calculated by nonlinear regression (four parameters sigmoid fitted with variable slope, least squares fit, and no constraint) analysis using the GraphPad Prism software.

pIC50: −log10 of the molar value.

T1 sequence (P40763 whole entry): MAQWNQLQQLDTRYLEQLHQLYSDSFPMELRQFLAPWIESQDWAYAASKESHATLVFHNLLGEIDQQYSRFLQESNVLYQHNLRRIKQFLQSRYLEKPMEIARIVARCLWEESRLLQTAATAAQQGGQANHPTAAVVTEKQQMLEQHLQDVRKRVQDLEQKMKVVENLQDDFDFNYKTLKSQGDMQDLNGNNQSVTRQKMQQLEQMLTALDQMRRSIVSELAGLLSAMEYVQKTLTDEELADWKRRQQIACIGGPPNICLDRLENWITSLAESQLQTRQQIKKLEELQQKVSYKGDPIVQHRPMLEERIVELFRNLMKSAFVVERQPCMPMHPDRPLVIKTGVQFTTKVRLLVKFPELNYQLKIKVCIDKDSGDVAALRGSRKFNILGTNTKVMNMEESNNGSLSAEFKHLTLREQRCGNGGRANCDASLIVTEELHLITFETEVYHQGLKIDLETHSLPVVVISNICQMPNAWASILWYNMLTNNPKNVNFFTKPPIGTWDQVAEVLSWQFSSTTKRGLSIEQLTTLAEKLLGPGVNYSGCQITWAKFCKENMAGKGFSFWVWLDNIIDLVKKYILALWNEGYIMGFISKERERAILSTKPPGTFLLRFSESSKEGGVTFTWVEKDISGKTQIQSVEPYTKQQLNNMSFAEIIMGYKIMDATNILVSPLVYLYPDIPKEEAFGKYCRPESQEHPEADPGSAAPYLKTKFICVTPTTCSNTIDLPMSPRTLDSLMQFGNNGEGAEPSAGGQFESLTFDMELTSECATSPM

Usually pIC50 stands for the negative decadic logarithm of the IC50, by convention in mol/L. High values mean a low IC50, low ones a high IC50. Regarding `NC(=O)CC[C@H](NC(=O)[C@@H]1CC[C@@H]2CCN(C(=O)CCCCCC#Cc3cccc4c3CN(C3CCC(=O)NC3=O)C4=O)C[C@H](NC(=O)c3cc4cc(C(F)(F)P(=O)(O)O)ccc4s3)C(=O)N21)c1ncc(-c2ccccc2)s1` (stereo partly drawn) [Cpd. No. 2, ((2-(((5S,8S,10aR)-8-(((S)-4-amino-4-oxo-1-(5-phenylthiazol-2-yl)butyl)carbamoyl)-3-(8-(2-(2,6-dioxopiperidin-3-yl)-1-oxoisoindolin-4-yl)oct-7-ynoyl)-6-oxodecahydropyrrolo[1,2-a][1,5]diazocin-5-yl)carbamoyl)benzo[b]thiophen-5-yl)difluoromethyl)phosphonic acid], the DC50 is 0.1 µM at STAT3 and > 1 µM at STAT1. In addition, in the assay with MOLM-16 cells, the pIC50 was 7.31.
